The values below come from patent US20210395256A1, “TYROSINE KINASE INHIBITORS, COMPOSITIONS AND METHODS THERE OF” (Betta Pharmaceuticals Co., Ltd., priority 2018, published 2021).

SMILES strings stand for the structures.

In data set [1] the target is T1, Ba/F3-ETV6-NTRK3 (Homo sapiens, UniProt Q16288).
T1 construct: Ba/F3 cells with TPM3-NTRK1 or ETV6-NTRK3 fusion mutation gene stably overexpressed named Ba/F3-TPM3-NTRK1 and Ba/F3-ETV6-NTRK3; fused on or other part: P41212 (Transcription factor ETV6)
The data set is described as follows: Ba/F3-ETV6-NTRK3 cells proliferation assay. The class given is cell-based. Particulars: 72 h, CellTiter Glo. As for the experimental part:
Example 202 Ba/F3-TPM3-NTRK1 and Ba/F3-ETV6-NTRK3 cells proliferation assay
Cell line: Ba/F3 cells with TPM3-NTRK1 or ETV6-NTRK3 fusion mutation gene stably overexpressed named Ba/F3-TPM3-NTRK1 and Ba/F3-ETV6-NTRK3.
RPMI 1640 and 10% FBS and 1% PS and 2 ug/mL puromycin.
b) Collect cell to a 15 mL centrifuged tube, centrifuge at 1000 rpm for 5 min. Discard the supernatant, count, and make the cell density at 1.49×10^4 cells/mL, then place it in a 37° C., 5% CO2 incubator.
a) The test compound (20 mM stock solution) was diluted to 60 μM with 100% DMSO as starting concentration then 3-fold serial diluted with “9+0” concentrations. in a 96-well dilution plate (Thermo, Cat. No. 249944);
b) The above compound solution was diluted 1:20 times with culture medium to prepare a 10 fold working solution;
a) Take cells in log phase growth, centrifuge at 1000 rpm for 5 min, then resuspend the cells with culture medium, then count cells;
b) Cells were seeded to 96-well cell culture plate with density at 2000 cells/well;
a) Compounds prepared at step 2 were added to cell plate with 15 μL per well, the final concentrations were 300, 100, 33.33, 11.11, 3.70, 1.23, 0.41, 0.14, 0.05 and 0 nM, and the final concentration of DMSO was 0.5%. The blank control well was a culture medium (0.5% DMSO);
c) The cells were incubated for an additional 72 h in the incubator.
a) Remove the 96-well cell culture plate and add 50 μl of CTG reagent (CellTiter Glo kit, promega, Cat #G7573).
b) Plate was shaked for 2 min and then let it cool for 30 min at room temperature.
c) The Luminescence signal value was read using a PerkinElmer reader.
Experimental Data Analysis
Data were analyzed using GraphPad Prism 6.0 software to obtain a fitted curve of compound activity.
Fit the Compound IC50 from non-linear regression equation:
Y=Bottom+(Top-Bottom)/(1+10^((Log IC50-X)×HillSlope));
X: The log of the concentration of the compound; Y: Luminescence value.
(In general: Cellular ATP, detected with luciferase, serves as a proxy for viable cell number.)

Data set [2] addresses TrkA kinase (Homo sapiens, UniProt P04629). The data set is described as follows: TrkA kinase assay (mobility shift assay). In kind it is biochemical. The settings on record: numeric values; read-out: Trk A Kinase IC50. In a few lines: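 Ten-point compound series was preincubated 10 min at room temperature with TrkA, then FAM-peptide plus ATP added in HEPES pH 7.5/Brij-35 buffer and reacted at 28 °C before EDTA quench.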

Data set [3] is described as follows: Liver microsomes metabolic stability assay, human. The class given is in vitro ADME. Particulars: human liver microsomes 0.5 mg/mL, 37° C.; for half-life at 2 μM: read-out: t1/2 Human. The method, then:
(§1) Example 203 Liver Microsomes Metabolic Stability Assay
(§2) Pooled human liver microsomes (Cat. 452117) were purchased from Corning. Pooled male rat liver microsomes (Cat. R1000) and pooled male mouse liver microsomes (Cat. M1000) were purchased from XENOTECH. Microsomes were stored at −80° C.
(§3) 1) Make a master solution containing phosphate buffer, ultra-pure H2O and MgCl2 solution according to Table 14.
(§4) 2) Two separated experiments were performed as follows.
(§5) a) With NADPH: 10 μL of 20 mg/mL liver microsomes and 40 μL of 10 mM NADPH were added to the incubations. The final concentrations of microsomes and NADPH were 0.5 mg/mL and 1 mM, respectively.
(§6) b) Without NADPH: 10 μL of 20 mg/mL liver microsomes and 40 μL of ultra-pure H2O were added to the incubations. The final concentration of microsomes was 0.5 mg/mL.
(§7) 3) The reaction was started with the addition of 4 μL test compounds solutions or control compound solution (verapamil) at the final concentration of 2 μM and carried out at 37° C.
(§8) 4) Aliquots of 50 μL were taken from the reaction solution at 0, 15, 30, 45 and 60 min. The reaction solutions were stopped by the addition of 4 volumes of cold acetonitrile with 1S (100 nM alprazolam, 200 nM caffeine, 200 nM labetalol and 2 μM ketoprofen). Samples were centrifuged at 3,220 g for 40 minutes. Aliquot of 100 μL of the supernatant was mixed with 100 μL of ultra-pure H2O and then used for LC-MS/MS analysis. All experiments were performed in duplicate.
(§9) The slope value, k, was determined by linear regression of the natural logarithm of the remaining percentage of the parent drug vs. incubation time curve.
(§10) The in vitro half-life (in vitro t1/2) was determined from the slope value:
(§11) Conversion of the in vitro t1/2 (in min) into the in vitro intrinsic clearance (in vitro CLint, in μL/min/mg proteins) was done using the following equation (mean of duplicate determinations): […]
(§12) The control compound (verapamil) was included in the assay. Any value of the compounds that was not within the specified limits will be rejected and the experiment will be repeated.

A short description of data set [4]: Liver microsomes metabolic stability assay, rat. The class given is in vitro ADME. Particulars: male, rat liver microsomes 0.5 mg/mL, 37° C.; for half-life at 2 μM: read-out: t1/2 Rat. The method, then:
as §1, §2, §3, §4, §5, §6, §7, §8, §9, §10, §11, §12
(Liver microsomes are a subcellular fraction often used to study metabolism.)

The nature of data set [5]: Liver microsomes metabolic stability assay, mouse. The class given is in vitro ADME. Particulars: male, mouse liver microsomes 0.5 mg/mL, 37° C.; for half-life at 2 μM: read-out: t1/2 Mouse. As for the experimental part: as §1, §2, §3, §4, §5, §6, §7, §8, §9, §10, §11, §12

TrkA kinase, sequence (P04629 33-796): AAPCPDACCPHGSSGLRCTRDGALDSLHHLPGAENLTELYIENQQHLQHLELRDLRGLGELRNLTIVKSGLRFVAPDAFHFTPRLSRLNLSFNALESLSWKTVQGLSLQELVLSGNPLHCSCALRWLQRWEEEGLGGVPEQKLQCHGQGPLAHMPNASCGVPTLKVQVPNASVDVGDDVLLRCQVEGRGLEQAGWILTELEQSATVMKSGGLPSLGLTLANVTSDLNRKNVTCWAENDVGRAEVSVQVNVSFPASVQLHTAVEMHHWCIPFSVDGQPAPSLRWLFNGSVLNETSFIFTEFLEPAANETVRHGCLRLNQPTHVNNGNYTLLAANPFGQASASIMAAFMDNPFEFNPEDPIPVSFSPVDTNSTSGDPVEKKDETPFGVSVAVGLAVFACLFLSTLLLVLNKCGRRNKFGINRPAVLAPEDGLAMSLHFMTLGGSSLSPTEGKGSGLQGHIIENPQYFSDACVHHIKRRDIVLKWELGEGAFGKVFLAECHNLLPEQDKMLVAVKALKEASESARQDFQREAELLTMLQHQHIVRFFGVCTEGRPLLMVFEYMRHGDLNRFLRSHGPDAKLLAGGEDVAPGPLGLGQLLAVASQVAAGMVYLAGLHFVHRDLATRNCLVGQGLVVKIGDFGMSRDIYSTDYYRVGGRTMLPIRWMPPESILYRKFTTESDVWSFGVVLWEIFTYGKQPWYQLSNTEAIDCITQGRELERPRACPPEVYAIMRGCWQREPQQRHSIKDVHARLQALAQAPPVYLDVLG
T1 sequence (Q16288 whole entry, the tested form may be a part): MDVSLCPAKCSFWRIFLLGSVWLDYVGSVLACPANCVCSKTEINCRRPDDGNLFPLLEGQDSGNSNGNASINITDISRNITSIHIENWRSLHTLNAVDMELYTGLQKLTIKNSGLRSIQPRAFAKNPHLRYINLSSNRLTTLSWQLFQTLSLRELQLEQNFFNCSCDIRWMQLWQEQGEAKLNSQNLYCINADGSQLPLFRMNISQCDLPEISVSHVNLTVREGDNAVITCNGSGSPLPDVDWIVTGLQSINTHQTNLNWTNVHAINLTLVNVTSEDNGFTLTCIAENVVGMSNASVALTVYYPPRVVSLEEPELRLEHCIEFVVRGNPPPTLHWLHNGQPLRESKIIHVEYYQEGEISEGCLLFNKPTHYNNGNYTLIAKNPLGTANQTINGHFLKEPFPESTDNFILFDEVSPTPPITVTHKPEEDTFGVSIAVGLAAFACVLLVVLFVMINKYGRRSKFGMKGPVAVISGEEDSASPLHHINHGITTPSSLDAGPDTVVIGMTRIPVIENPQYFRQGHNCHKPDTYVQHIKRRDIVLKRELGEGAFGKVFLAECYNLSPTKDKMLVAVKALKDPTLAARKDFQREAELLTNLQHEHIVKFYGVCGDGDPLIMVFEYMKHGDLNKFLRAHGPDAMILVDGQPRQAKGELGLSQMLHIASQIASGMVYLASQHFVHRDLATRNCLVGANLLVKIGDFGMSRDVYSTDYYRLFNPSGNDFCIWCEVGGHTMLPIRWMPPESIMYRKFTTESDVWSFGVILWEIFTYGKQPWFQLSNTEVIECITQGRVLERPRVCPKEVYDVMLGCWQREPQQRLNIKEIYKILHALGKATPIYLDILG

In general, IC50 refers to the concentration that gives 50% inhibition. In data set [1], `Fc1ccc(F)c([C@H]2CCCN2c2ccn3ncc(-c4nnc(-c5ccncc5)[nH]4)c3n2)c1` [Compound 8, (R)-5-(2-(2,5-difluorophenyl)pyrrolidin-1-yl)-3-(5-(pyridin-4-yl)-4H-1,2,4-triazol-3-yl)pyrazolo[1,5-a]pyrimidine] showed an IC50 of 1.55 nM.

What is called microsomal CLint is a measure of how fast metabolising enzymes remove a compound, apart from limits set by blood flow. Regarding `Fc1ccc(F)c([C@H]2CCCN2c2ccn3ncc(-c4nc5ccc(OC(F)(F)F)cc5o4)c3n2)c1` [Compound 80, (R)-2-(5-(2-(2,5-difluorophenyl)pyrrolidin-1-yl)pyrazolo[1,5-a]pyrimidin-3-yl)-6-(trifluoromethoxy)benzo[d]oxazole], the IC50 in data set [2] was found to be 23.6 nM. The intrinsic metabolic clearance (microsomal CLint) at 2 μM in data set [3] is 2.4 µL/min/mg; in data set [4], 7 µL/min/mg; in data set [5], 8.4 µL/min/mg. Moreover, the half-life at 2 μM in data set [3] came to 9.62 h; in data set [4], 3.3 h; in data set [5], 2.75 h.

In the case of `Fc1ccc(F)c([C@H]2CCCN2c2ccn3ncc(-c4nc5cc6c(cc5[nH]4)OCCO6)c3n2)c1` [Compound 96, (R)-2-(5-(2-(2,5-difluorophenyl)pyrrolidin-1-yl)pyrazolo[1,5-a]pyrimidin-3-yl)-6,7-dihydro-1H-[1,4]dioxino[2′,3′:4,5]benzo[1,2-d]imidazole], the half-inhibitory concentration (IC50) in data set [2] turned out to be 0.7 nM. Also, the microsomal CLint at 2 μM in data set [3] is 37 µL/min/mg; in data set [4], 29.4 µL/min/mg; in data set [5] it was 32 µL/min/mg. Also, the figures for the half-life at 2 μM in data set [3], in data set [4] and in data set [5] were 0.624 h, 0.786 h and 0.722 h, respectively.

Take `COc1cc2[nH]c(-c3cnn4ccc(N5CCC[C@@H]5c5cc(F)ccc5F)nc34)nc2cc1Cl` [Compound 112, (R)-3-(5-chloro-6-methoxy-1H-benzo[d]imidazol-2-yl)-5-(2-(2,5-difluorophenyl)pyrrolidin-1-yl)pyrazolo[1,5-a]pyrimidine]: the IC50 in data set [2] was determined as 3.2 nM. The figures for the intrinsic metabolic clearance (microsomal CLint) at 2 μM in data set [3], in data set [4] and in data set [5] were 16.8 µL/min/mg, 34 µL/min/mg and 27.4 µL/min/mg, respectively. In addition, the results for the half-life at 2 μM in data set [3], in data set [4] and in data set [5] were 1.38 h, 0.679 h and 0.843 h, respectively.

For `Fc1ccc(F)c([C@H]2CCCN2c2ccn3ncc(-c4nc5cnncc5[nH]4)c3n2)c1` [Compound 76, (R)-2-(5-(2-(2,5-difluorophenyl)pyrrolidin-1-yl)pyrazolo[1,5-a]pyrimidin-3-yl)-1H-imidazo[4,5-d]pyridazine], the IC50 in data set [2] was 0.66 nM. Besides, the figures for the intrinsic clearance (microsomal CLint) at 2 μM in data set [3], in data set [4] and in data set [5] were 21.2 µL/min/mg, 22.2 µL/min/mg and 15.6 µL/min/mg, respectively. Further, the half-life at 2 μM came out at 1.09 h in data set [3], 1.04 h in data set [4] and 1.48 h in data set [5].

Consider `Fc1ccc(F)c([C@H]2CCCN2c2ccn3ncc(-c4nnc(-c5ccc(N6CCNCC6)cc5)[nH]4)c3n2)c1` [Compound 40, (R)-5-(2-(2,5-difluorophenyl)pyrrolidin-1-yl)-3-(5-(4-(piperazin-1-yl)phenyl)-4H-1,2,4-triazol-3-yl)pyrazolo[1,5-a]pyrimidine], for which, in data set [2], the IC50 worked out at 1.56 nM. Moreover, the results for the microsomal CLint at 2 μM in data set [3], in data set [4] and in data set [5] were 3.2 µL/min/mg, 4.6 µL/min/mg and 12.4 µL/min/mg, respectively. Besides, the half-life at 2 μM turned out to be 7.22 h in data set [3], 5.02 h in data set [4] and 1.86 h in data set [5].

For `Fc1ccc(F)c([C@H]2CCCN2c2ccn3ncc(-c4nc5cc(Cl)c(OC(F)(F)F)cc5[nH]4)c3n2)c1` [Compound 92, (R)-3-(5-chloro-6-(trifluoromethoxy)-1H-benzo[d]imidazol-2-yl)-5-(2-(2,5-difluorophenyl)pyrrolidin-1-yl)pyrazolo[1,5-a]pyrimidine], the IC50 in data set [2] was 20.7 nM. The values for the intrinsic clearance (microsomal CLint) at 2 μM in data set [3], in data set [4] and in data set [5] were 20.4 µL/min/mg, 10.2 µL/min/mg and 5.6 µL/min/mg, respectively. Also, the results for the half-life at 2 μM in data set [3], in data set [4] and in data set [5] were 1.13 h, 2.26 h and 4.12 h, respectively.

`COc1cc2nc(-c3cnn4ccc(N5CCC[C@@H]5c5cc(F)ccc5F)nc34)[nH]c2cc1C(=O)O` [Compound 90, (R)-2-(5-(2-(2,5-difluorophenyl)pyrrolidin-1-yl)pyrazolo[1,5-a]pyrimidin-3-yl)-5-methoxy-1H-benzo[d]imidazole-6-carboxylic acid]: the concentration for half-maximal inhibition (IC50) in data set [2] is 0.44 nM. In addition, the microsomal CLint at 2 μM stood at 5.6 µL/min/mg in data set [3], 1.4 µL/min/mg in data set [4] and 0.8 µL/min/mg in data set [5]. Moreover, the half-life at 2 μM in data set [3] is 4.12 h; in data set [4], 16.5 h; in data set [5], 28.9 h.

Consider `Fc1ccc(F)c([C@H]2CCCN2c2ccn3ncc(-c4nc5cc(OC(F)(F)F)ccc5[nH]4)c3n2)c1` [Compound 71, (R)-5-(2-(2,5-difluorophenyl)pyrrolidin-1-yl)-3-(5-(trifluoromethoxy)-1H-benzo[d]imidazol-2-yl)pyrazolo[1,5-a]pyrimidine], for which the half-maximal inhibitory concentration (IC50) in data set [2] was found to be 27.1 nM. In addition, the intrinsic metabolic clearance (microsomal CLint) at 2 μM in data set [3] amounted to 17 µL/min/mg; in data set [4], 12.2 µL/min/mg; in data set [5], 10.8 µL/min/mg. Also, the half-life at 2 μM in data set [3] amounted to 1.36 h; in data set [4], 1.89 h; in data set [5], 2.14 h.

As for `Fc1ccc(F)c([C@H]2CCCN2c2ccn3ncc(-c4nc5cc6c(cc5[nH]4)OC(F)(F)O6)c3n2)c1` [Compound 79, (R)-6-(5-(2-(2,5-difluorophenyl)pyrrolidin-1-yl)pyrazolo[1,5-a]pyrimidin-3-yl)-2,2-difluoro-5H-[1,3]dioxolo[4′,5′:4,5]benzo[1,2-d]imidazole], the half-maximal inhibitory concentration (IC50) in data set [2] worked out at 11.9 nM. The values for the intrinsic clearance (microsomal CLint) at 2 μM in data set [3], in data set [4] and in data set [5] were 10.2 µL/min/mg, 10.8 µL/min/mg and 10 µL/min/mg, respectively. The figures for the half-life at 2 μM in data set [3], in data set [4] and in data set [5] were 2.26 h, 2.14 h and 2.31 h, respectively.
